Columns and labels:
Assay type in all cases: cell-based, human
[1] = system: MALME-3M; test: NCI SRB cytotoxicity, Melanoma MALME-3M; details: 48 h
Description: (§1) Biological Activity: In vitro biological activity studies were carried out at National Cancer Institute (U.S.A.).
(§2) For each compound, dose response curves for each cell line were measured at a minimum of five concentrations at 10 fold dilutions. A protocol of 48 h continuous drug exposure was used, and a sulforhodamine B (SRB) protein assay was used to estimate cell viability or growth. The concentration causing 50% cell growth inhibition (GI50), total cell growth inhibition (TGI, 0% growth) and 50% cell death (LC50, −50% growth) compared with the control was calculated.

[2] = system: OVCAR-5; test: NCI SRB cytotoxicity, Ovarian OVCAR-5; details: OVCAR-5, Ovarian, 48 h
Description: as §1, §2

[3] = system: HCT-15; test: NCI SRB cytotoxicity, Colon HCT-15; details: HCT-15, Colon, 48 h
Description: as §1, §2

[4] = system: HOP-62; test: NCI SRB cytotoxicity, Non-small-cell lung HOP-62; details: HOP-62, Non-small-cell lung, 48 h
Description: as §1, §2

[5] = system: PC-3; test: NCI SRB cytotoxicity, Prostate PC-3; details: PC-3, Prostate, 48 h
Description: as §2

[6] = system: NCI-H226; test: NCI SRB cytotoxicity, Non-small-cell lung NCI-H226; details: 48 h
Description: as §1, §2

[7] = system: MDA-MB-435; test: NCI SRB cytotoxicity, Breast MDA-MB-435; details: MDA-MB-435, Breast, 48 h
Description: as §1, §2

[8] = system: OVCAR-4; test: NCI SRB cytotoxicity, Ovarian OVCAR-4; details: OVCAR-4, Ovarian, 48 h
Description: as §1, §2

[9] = system: KM-12; test: NCI SRB cytotoxicity, Colon KM-12; details: KM-12, Colon, 48 h
Description: as §1, §2

[10] = system: HS578T; test: NCI SRB cytotoxicity, Breast HS578T; details: 48 h
Description: as §1, §2

[11] = system: OVCAR-8; test: NCI SRB cytotoxicity, Ovarian OVCAR-8; details: OVCAR-8, Ovarian, 48 h
Description: as §1, §2

[12] = system: IGROVI; test: NCI SRB cytotoxicity, Ovarian IGROVI; details: 48 h
[13] = system: NCI-H522; test: NCI SRB cytotoxicity, Non-small-cell lung NCI-H522; details: 48 h
Description: as §1, §2

[14] = system: MCF7; test: NCI SRB cytotoxicity, Breast MCF7; details: 48 h
Description: as §1, §2

[15] = system: NCI-H23; test: NCI SRB cytotoxicity, Non-small-cell lung NCI-H23; details: 48 h
Description: as §1, §2

[16] = system: HT-29; test: NCI SRB cytotoxicity, Colon HT-29; details: HT-29, Colon, 48 h
Description: as §1, §2

[17] = system: SF-295; test: NCI SRB cytotoxicity, CNS SF-295; details: SF-295, CNS, 48 h
Description: as §1, §2

[18] = system: HCT-116; test: NCI SRB cytotoxicity, Colon HCT-116; details: HCT-116, Colon, 48 h
Description: as §1, §2

[19] = system: SNB-19; test: NCI SRB cytotoxicity, CNS SNB-19; details: SNB-19, CNS, 48 h
Description: as §1, §2

[20] = system: SK-OV-3; test: NCI SRB cytotoxicity, Ovarian SK-OV-3; details: SK-OV-3, Ovarian, 48 h
Description: as §1, §2

[21] = system: LOXIMVI; test: NCI SRB cytotoxicity, Melanoma LOXIMVI; details: 48 h
Description: as §1, §2

| Structure (SMILES) | Log GI 50 [2] | Log LC 50 [2] | Log GI 50 [3] | Log LC 50 [3] | Log LC 50 [4] | Log GI 50 [5] | Log LC 50 [5] | Log LC 50 [6] | Log GI 50 [7] | Log LC 50 [7] | Log GI 50 [8] | Log LC 50 [8] | Log GI 50 [9] | Log LC 50 [9] | Log GI 50 [10] | Log LC 50 [10] | Log LC 50 [11] | Log GI 50 [12] | Log LC 50 [12] | Log LC 50 [13] | also measured |
| --- | --- | --- | --- | --- | --- | --- | --- | --- | --- | --- | --- | --- | --- | --- | --- | --- | --- | --- | --- | --- | --- |
| COc1cc2c(cc1OCCN1CCN(CCOc3cc4c(cc3OC)C(=O)N3CCC[C@H]3C=N4)CC1)N=C[C@@H]1CCCN1C2=O [Compound VIa, 1,1′-{[(bisethane-1,N-diyl)piperazine]dioxy}bis[(11aS)-7-methoxy-1,2,3,11a-tetrahydro-5H-pyrrolo[2,1-c][1,4]benzodiazepin-5-one]] | −4.65 mol/L | −4.00 mol/L | −4.39 mol/L | −4.00 mol/L | −4.00 mol/L | −4.44 mol/L | −4.00 mol/L | −4.00 mol/L | −4.71 mol/L | −4.08 mol/L | −4.00 mol/L | −4.00 mol/L | −4.70 mol/L | −4.04 mol/L | −4.34 mol/L | −4.00 mol/L | −4.00 mol/L | −4.21 mol/L | −4.00 mol/L | −4.00 mol/L | Log GI 50 [1]: −5.46 mol/L; Log LC 50 [1]: −4.17 mol/L; Log GI 50 [4]: −4.46 mol/L; Log GI 50 [6]: −4.80 mol/L; Log GI 50 [11]: −4.58 mol/L; Log GI 50 [13]: −4.94 mol/L; Log GI 50 [14]: −4.88 mol/L; Log LC 50 [14]: −4.00 mol/L; Log GI 50 [15]: −4.76 mol/L; Log LC 50 [15]: −4.00 mol/L; Log GI 50 [16]: −4.58 mol/L; Log LC 50 [16]: −4.00 mol/L; Log GI 50 [17]: −5.06 mol/L; Log LC 50 [17]: −4.00 mol/L; Log GI 50 [18]: −4.47 mol/L; Log LC 50 [18]: −4.00 mol/L; Log GI 50 [19]: −4.75 mol/L; Log LC 50 [19]: −4.00 mol/L; Log GI 50 [20]: −4.00 mol/L; Log LC 50 [20]: −4.00 mol/L |
| COc1cc2c(cc1OCCCCN1CCN(CCCCOc3cc4c(cc3OC)C(=O)N3CCC[C@H]3C=N4)CC1)N=C[C@@H]1CCCN1C2=O [Compound VIc, 1,1′-{[(bisbutane-1,N-diyl)piperazine]dioxy}bis[(11aS)-7-methoxy-1,2,3,11a-tetrahydro-5H-pyrrolo[2,1-c][1,4]benzodiazepin-5-one]] | −7.92 mol/L | −4.00 mol/L | −7.92 mol/L | −6.37 mol/L | −4.00 mol/L | −7.02 mol/L | −4.00 mol/L | −4.00 mol/L | −7.87 mol/L | −7.15 mol/L | −7.11 mol/L | −4.00 mol/L | −7.84 mol/L | −4.67 mol/L | −7.30 mol/L | −4.00 mol/L | −4.00 mol/L | −6.79 mol/L | −4.00 mol/L | −4.00 mol/L | Log LC 50 [1]: −7.41 mol/L; Log LC 50 [14]: −4.00 mol/L; Log LC 50 [15]: −5.59 mol/L; Log GI 50 [16]: −7.89 mol/L; Log LC 50 [16]: −4.00 mol/L; Log LC 50 [17]: −4.69 mol/L; Log GI 50 [18]: −6.42 mol/L; Log LC 50 [18]: −4.00 mol/L; Log LC 50 [19]: −4.44 mol/L; Log LC 50 [20]: −4.00 mol/L |
| COc1cc2c(cc1OCCCCCN1CCN(CCCCCOc3cc4c(cc3OC)C(=O)N3CCC[C@H]3C=N4)CC1)N=C[C@@H]1CCCN1C2=O [Compound VId] | −5.33 mol/L | −4.00 mol/L | −4.25 mol/L | −4.00 mol/L | −4.00 mol/L | −5.41 mol/L | −4.00 mol/L | −4.00 mol/L | −5.37 mol/L | −4.00 mol/L | −5.38 mol/L | −4.00 mol/L | −5.25 mol/L | −4.00 mol/L | −5.12 mol/L | −4.00 mol/L | −4.00 mol/L | −5.13 mol/L | −4.00 mol/L | −4.00 mol/L | Log GI 50 [4]: −4.00 mol/L; Log GI 50 [6]: −5.30 mol/L; Log GI 50 [21]: −5.61 mol/L; Log LC 50 [21]: −4.00 mol/L; Log GI 50 [11]: −4.67 mol/L; Log GI 50 [13]: −5.47 mol/L; Log GI 50 [14]: −5.69 mol/L; Log LC 50 [14]: −4.00 mol/L; Log GI 50 [15]: −5.18 mol/L; Log LC 50 [15]: −4.00 mol/L; Log GI 50 [16]: −5.02 mol/L; Log LC 50 [16]: −4.00 mol/L; Log GI 50 [17]: −5.30 mol/L; Log LC 50 [17]: −4.00 mol/L; Log GI 50 [18]: −4.00 mol/L; Log LC 50 [18]: −4.00 mol/L; Log GI 50 [19]: −4.00 mol/L; Log LC 50 [19]: −4.00 mol/L |
| COc1cc2c(cc1OCCCN1CCN(CCCOc3cc4c(cc3OC)C(=O)N3CCC[C@H]3C=N4)CC1)N=C[C@@H]1CCCN1C2=O [Compound VIb, 1,1′-{[(bispropane-1,N-diyl)piperazine]dioxy}bis[(11aS)-7-methoxy-1,2,3,11a-tetrahydro-5H-pyrrolo[2,1-c][1,4]benzodiazepin-5-one]] | −5.06 mol/L | −4.00 mol/L | −4.25 mol/L | −4.00 mol/L | −4.00 mol/L | −5.53 mol/L | −4.00 mol/L | −4.00 mol/L | −5.37 mol/L | −4.09 mol/L | −4.13 mol/L | −4.00 mol/L | −4.64 mol/L | −4.00 mol/L | −6.13 mol/L | −4.00 mol/L | −4.00 mol/L | −5.26 mol/L | −4.00 mol/L | −4.00 mol/L | Log GI 50 [1]: −5.39 mol/L; Log GI 50 [4]: −5.14 mol/L; Log GI 50 [6]: −4.34 mol/L; Log GI 50 [11]: −4.48 mol/L; Log GI 50 [13]: −6.40 mol/L; Log GI 50 [14]: −6.01 mol/L; Log LC 50 [14]: −4.00 mol/L; Log GI 50 [15]: −4.89 mol/L; Log LC 50 [15]: −4.00 mol/L; Log GI 50 [16]: −4.46 mol/L; Log LC 50 [16]: −4.00 mol/L; Log GI 50 [17]: −4.99 mol/L; Log LC 50 [17]: −4.00 mol/L; Log GI 50 [18]: −4.92 mol/L; Log LC 50 [18]: −4.00 mol/L; Log GI 50 [19]: −5.06 mol/L; Log LC 50 [19]: −4.00 mol/L |

From patent US7015215B2, “Pyrrolo[2,1-c][1,4] benzodiazepines compounds and process thereof” (Council of Scientific and Industrial Research, priority 2003, dated 2006)
